Measured values taken from the supplement of paper PMC10307832.

Tests used:
Experiment in all cases: relative viability (nuclei count vs DMSO), 5 days (fraction); higher = more cells survive
QS11 + Phenformin = compound: C1CC2=C(C1)C=C(C=C2)OC3=NC(=C4C(=N3)N(C=N4)CC5=CC=C(C=C5)C6=CC=CC=C6)N[C@@H](CC7=CC=CC=C7)CO [QS11] + N=C(N)NC(=N)NCCc1ccccc1 [Phenformin] (partner 250 µM)
Summary of the method: (§1)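 Relative viability equals treated-well nuclei counts divided by vehicle-well nuclei counts. Counts came from 4× images of lung cancer cell lines grown in 1536-well plates for 5 days after pin-tool dosing on the day after seeding. Dosing used one drug alone or a fixed anchor-drug dose plus five library-drug doses (not always all listed) in √10 steps, and values are medians of duplicate plates.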

QS11 + Navitoclax = compound: C1CC2=C(C1)C=C(C=C2)OC3=NC(=C4C(=N3)N(C=N4)CC5=CC=C(C=C5)C6=CC=CC=C6)N[C@@H](CC7=CC=CC=C7)CO [QS11] + CC1(C)CCC(c2ccc(Cl)cc2)=C(CN2CCN(c3ccc(C(=O)NS(=O)(=O)c4ccc(N[C@H](CCN5CCOCC5)CSc5ccccc5)c(S(=O)(=O)C(F)(F)F)c4)cc3)CC2)C1 [Navitoclax] (partner 0.5 µM)
Summary of the method: as §1

AZ628 + Luminespib = compound: CC1=C(C=C(C=C1)NC(=O)C2=CC(=CC=C2)C(C)(C)C#N)NC3=CC4=C(C=C3)N=CN(C4=O)C [AZ628] + CCNC(=O)c1noc(-c2cc(C(C)C)c(O)cc2O)c1-c1ccc(CN2CCOCC2)cc1 [Luminespib] (partner 0.01 µM)
Summary of the method: as §1

AZ628 + Trametinib = compound: CC1=C(C=C(C=C1)NC(=O)C2=CC(=CC=C2)C(C)(C)C#N)NC3=CC4=C(C=C3)N=CN(C4=O)C [AZ628] + CC(=O)Nc1cccc(-n2c(=O)n(C3CC3)c(=O)c3c(Nc4ccc(I)cc4F)n(C)c(=O)c(C)c32)c1 [Trametinib] (partner 0.02 µM)
Summary of the method: as §1

Row | Cell Line | relative viability (QS11 + Phenformin; first compound 0.08 µM) | relative viability (QS11 + Phenformin; first compound 0.253 µM) | relative viability (QS11 + Phenformin; first compound 0.8 µM) | relative viability (QS11 + Phenformin; first compound 2.53 µM) | relative viability (QS11 + Phenformin; first compound 8 µM) | relative viability (QS11 + Navitoclax; first compound 0.08 µM) | relative viability (QS11 + Navitoclax; first compound 0.253 µM) | relative viability (QS11 + Navitoclax; first compound 0.8 µM) | relative viability (QS11 + Navitoclax; first compound 2.53 µM) | relative viability (QS11 + Navitoclax; first compound 8 µM) | relative viability (AZ628 + Luminespib; first compound 0.08 µM) | relative viability (AZ628 + Luminespib; first compound 0.253 µM) | relative viability (AZ628 + Luminespib; first compound 0.8 µM) | relative viability (AZ628 + Luminespib; first compound 2.53 µM) | relative viability (AZ628 + Luminespib; first compound 8 µM) | relative viability (AZ628 + Trametinib; first compound 0.08 µM) | relative viability (AZ628 + Trametinib; first compound 0.253 µM) | relative viability (AZ628 + Trametinib; first compound 0.8 µM) | relative viability (AZ628 + Trametinib; first compound 2.53 µM) | relative viability (AZ628 + Trametinib; first compound 8 µM)
1 | HCC-44 | 0.208 | 0.206 | 0.25 | 0.158 | 0.157 | 0.943 | 0.93 | 0.666 | 0.792 | 0.718 | 1.29 | 1.08 | 1.13 | 0.945 | 0.767 | 0.909 | 0.837 | 0.566 | 0.804 | 0.519
2 | NCI-H647 | 0.372 | 0.57 | 0.514 | 0.478 | 0.527 | 1.28 | 1.12 | 1.07 | 1.13 | 1.1 | 0.155 | 0.132 | 0.221 | 0.186 | 0.186 | 0.277 | 0.233 | 0.22 | 0.22 | 0.22
3 | NCI-H1734 | 0.391 | 0.397 | 0.389 | 0.374 | 0.375 | 0.803 | 0.96 | 0.751 | 0.568 | 0.663 | 0.224 | 0.19 | 0.153 | 0.172 | 0.142 | 0.42 | 0.386 | 0.313 | 0.344 | 0.301
4 | NCI-H1993 | 0.522 | 0.583 | 0.528 | 0.615 | 0.52 | 0.833 | 0.761 | 0.997 | 0.946 | 0.893 | 0.991 | 0.683 | 0.702 | 0.753 | 0.613 | 0.456 | 0.516 | 0.479 | 0.535 | 0.667
5 | NCI-H23 | 0.769 | 0.779 | 0.853 | 0.678 | 0.877 | 0.818 | 0.863 | 0.872 | 0.75 | 0.692 | 0.201 | 0.222 | 0.224 | 0.216 | 0.201 | 0.178 | 0.29 | 0.211 | 0.191 | 0.23
6 | NCI-H1355 | 0.445 | 0.444 | 0.457 | 0.418 | 0.457 | 0.876 | 0.869 | 0.791 | 1.03 | 0.881 | 0.756 | 0.716 | 0.705 | 0.667 | 0.646 | 0.384 | 0.303 | 0.28 | 0.292 | 0.286
7 | NCI-H2170 | 0.436 | 0.404 | 0.399 | 0.44 | 0.392 | 0.575 | 0.584 | 0.572 | 0.605 | 0.695 | 0.802 | 0.725 | 0.789 | 0.752 | 0.731 | 0.872 | 0.897 | 0.799 | 0.807 | 0.583
8 | NCI-H2405 | 0.361 | 0.443 | 0.372 | 0.45 | 0.399 | 0.778 | 0.757 | 0.901 | 0.894 | 0.768 | 0.366 | 0.425 | 0.411 | 0.365 | 0.355 | 0.387 | 0.319 | 0.277 | 0.286 | 0.313
